We go through 35 compounds from patent US6528655B1, “Aromatic derivatives with HIV integrase inhibitory properties” (Pharmacor, Inc., priority 2000, dated 2003).

Where only a bound is given, the exact number is not on record here.

One experiment concerns the target HIV-1 integrase (Human immunodeficiency virus type 1 group M subtype B, UniProt P04585). As to the kind of experiment: HIV-1 integrase inhibition assay (radiolabeled duplex substrate corresponding to the U5 end of the HIV LTR). It is filed as biochemical.
Conditions: not given
Here is the method: For the purpose of Table 1 to 4, the HIV-1 integrase inhibition assay was carried out following a known procedure (Burke, Jr. T. R. et al., J. Med. Chem. 38, 4171-4178 (1995)). A suitable radiolabeled duplex substrate corresponding to the U5 end of the HIV LTR was used.
For the purposes of Table 1 to 4 the HIV-1 integrase inhibition assay was based on a known procedure (Hazuda, D. J. et al., Nucleic Acids Res. 22 1121-1122 (1994)).
Take `O=C(N[C@@H](Cc1cn(-c2ccc([N+](=O)[O-])cc2[N+](=O)[O-])cn1)C(=O)NCc1ccc(O)c(O)c1)c1ccc(O)c(O)c1` [Example 23, N-[Nα-(3,4-Dihydroxybenzoyl)-Nτ-(2,4-dinitrophenyl)-L-histidinyl]-3,4-dihydroxybenzylamine]: half-maximal inhibition (IC50) was put at 262 nM.
The same measure, in the same setting: to `O=C(N[C@H](Cc1cn(C(c2ccccc2)(c2ccccc2)c2ccccc2)cn1)C(=O)NCCc1ccc(O)c(O)c1)c1ccc(O)c(O)c1` [Example 16, N-[Nα-(3,4-Dihydroxybenzoyl)-Nτ-trityl-D-histidinyl]dopamine] belongs 155 nM; to `O=C(N[C@@H](Cc1cn(C(c2ccccc2)(c2ccccc2)c2ccccc2)cn1)C(=O)NCCc1ccc(O)c(O)c1)c1ccc(O)cc1` [Example 52, N-[Nα-(4-Hydroxybenzoyl)-Nτ-trityl-L-histidinyl]dopamine], 3300 nM; to `O=C(/C=C/c1ccc(O)c(O)c1)NCCCC[C@H](NC(=O)/C=C/c1ccc(O)c(O)c1)C(=O)OCc1ccccc1` [Example 6, Nα,Nε-Dicaffeoyl-L-lysine Benzyl Ester], 2700 nM.
For the compound `O=C(N[C@@H](Cc1ccc(O)cc1)C(=O)NCCc1ccc(O)c(O)c1)c1cnc(O)nc1O` [Example 4, N-[Nα-(2,4-Dihydroxypyrimidinyl-5-carbonyl)-L-tyrosyl]dopamine], the IC50 was > 10000 nM.
Take `O=C(N[C@@H](Cc1cn(-c2ccc([N+](=O)[O-])cc2[N+](=O)[O-])cn1)C(=O)NCCc1ccc(O)c(O)c1)c1ccc(O)c(O)c1` [Example 21, N-[Nα-(3,4-Dihydroxybenzoyl)-Nτ-(2,4-dinitrophenyl)-L-histidinyl]dopamine]: the half-inhibitory concentration (IC50) amounted to 151 nM.
With `COc1ccc(OC)c(NC(=O)[C@H](CCC(=O)NC(c2ccccc2)(c2ccccc2)c2ccccc2)NC(=O)/C=C/c2ccc(O)c(O)c2)c1` [Example 82, N-(Nα-Caffeoyl-Nδ-trityl-L-glutaminyl)-2,5-dimethoxyaniline], the midpoint of inhibition, the IC50, lay at 2550 nM.
The same measure, in the same setting: the result for `O=C(/C=C/c1ccc(O)c(O)c1)N[C@@H](Cc1ccc(O)c(O)c1)C(=O)NNC(=O)c1ccccc1O` [Example 76, N1-(Nα-Caffeoyl-L-3,4-dihydroxyphenylalanyl)-N2-(2-hydroxybenzoyl)-hydrazine] reads 383 nM; that for `Cc1ccc(C(NC(=O)CC[C@H](NC(=O)c2ccc(O)c(O)c2)C(=O)NCCc2ccc(O)c(O)c2)(c2ccccc2)c2ccccc2)cc1` [Example 49, N-[Nα-(3,4-Dihydroxybenzoyl)-Nδ-methyltrityl-L-glutaminyl]dopamine], 1300 nM; that for `O=C(N[C@@H](Cc1ccc(O)cc1)C(=O)NNC(=O)c1ccccc1O)c1cc(O)c2cccc(O)c2n1` [Example 73, N1-[Nα-(4,8-Dihydroxyquinoline-2-carbonyl)-L-tyrosyl]-N2-(2-hydroxybenzoyl)-hydrazine], 2200 nM.
`O=C(N[C@@H](Cc1ccc(O)c(O)c1)C(=O)NCCc1ccc(O)c(O)c1)c1ccc(O)c([N+](=O)[O-])c1` [Example 15, N-[Nα-(4-Hydroxy-3-nitrobenzoyl)-L-3,4-dihydroxyphenylalanyl]dopamine] registered a 50% inhibitory concentration (IC50) of 433 nM.
Consider `CC(C)(C)OC[C@H](NC(=O)c1cc2ccccc2n1Cc1ccc(F)cc1)C(=O)NCCc1ccc(O)c(O)c1` [Example 95, N-[Nα-(N′-(4-Fluorobenzyl)indole-2-carbonyl)-O-tert-butyl-L-seryl]dopamine], for which the IC50 was 7000 nM.
`O=C(N[C@@H](Cc1cn(C(c2ccccc2)(c2ccccc2)c2ccccc2)cn1)C(=O)NCc1ccc(O)c(O)c1)c1cc(O)c2cccc(O)c2n1` [Example 70, N-[Nα-(4,8-Dihydroxyquinoline-2-carbonyl)-Nτ-trityl-L-histidinyl]-3,4-dihydroxybenzylamine]: the IC50 came out at 403 nM.
In turn, `Cc1ccc(C(NC(=O)CC[C@H](NC(=O)/C=C/c2ccc(O)c(O)c2)C(=O)NCCc2ccc(O)c(O)c2)(c2ccccc2)c2ccccc2)cc1` [Example 48, N-(Nα-Caffeoyl-Nδ-methyltrityl-L-glutaminyl)dopamine] yielded a concentration for half-maximal inhibition (IC50) of 1150 nM.
Compound `Cc1ccc(C(NC(=O)CC[C@H](NC(=O)/C=C/c2cccc([N+](=O)[O-])c2)C(=O)NCCc2ccc(O)c(O)c2)(c2ccccc2)c2ccccc2)cc1` [Example 50, N-[Nα-(3-Nitrocinnamoyl)-Nδ-methyltrityl-L-glutaminyl]dopamine] registered a 50% inhibitory concentration (IC50) of 3950 nM.
For the compound `O=C(N[C@@H](Cc1cn(C(c2ccccc2)(c2ccccc2)c2ccccc2)cn1)C(=O)NCCc1ccc(O)c(O)c1)c1ccc(O)c(O)c1` [Example 14, N-[Nα-(3,4-Dihydroxybenzoyl)-Nτ-trityl-L-histidinyl]dopamine], half-maximal inhibition (IC50) required 65 nM.
Consider `O=C(/C=C/c1ccc(O)c(O)c1)NCCC[C@H](NC(=O)/C=C/c1ccc(O)c(O)c1)C(=O)NCCc1ccc(O)c(O)c1` [Example 11, N-(Nα,Nδ-Dicaffeoyl-L-ornithyl)dopamine], for which the half-maximal inhibitory concentration (IC50) worked out at 870 nM.
`O=C(O)CC[C@H](NC(=O)c1cc(F)ccc1O)C(=O)NCCc1cccs1` [Example 108, N-[Nα-(5-Fluoro-2-hydroxybenzoyl)-L-glutamyl]-2-(2′-thiophenyl)ethylamine]: the IC50 was > 10000 nM.
As to `O=C(O)CC[C@H](NC(=O)c1cccn1Cc1ccc(F)cc1)C(=O)NCCc1cccs1` [Example 103, N-[Nα-(N′-(4-Fluorobenzyl)pyrrole-2-carbonyl)-L-glutamyl]-2-(2′-thiophenyl)ethylamine], the IC50 was > 10000 nM.
`O=C(/C=C/c1ccc(O)c(O)c1)N[C@@H](Cc1c[nH]c2ccccc12)C(=O)NNC(=O)c1ccccc1O` [Example 75, N1-(Nα-Caffeoyl-L-tryptophanyl)-N2-(2-hydroxybenzoyl)-hydrazine] came in with an IC50 of 1200 nM.
Same read-out and setting: the result for `O=C(/C=C/c1c[nH]c2ccccc12)N[C@@H](Cc1cn(C(c2ccccc2)(c2ccccc2)c2ccccc2)cn1)C(=O)NCCc1ccc(O)c(O)c1` [Example 86, N-[Nα-(3-(3′-Indole)acryloyl)-Nτ-trityl-L-histidinyl]dopamine] reads 2000 nM; that for `NC(=O)C[C@H](NC(=O)c1cc2cccc(O)c2cc1O)C(=O)NCCc1ccc(O)c(O)c1` [Example 61, N-[Nα-(3,5-Dihydroxynaphthyl-2-carbonyl)-L-asparagyl]dopamine], > 5000 nM.
As to `O=C(NCCCC[C@H](NC(=O)c1ccc(O)c(O)c1)C(=O)O)c1ccc(O)c(O)c1` [Example 3, Nα,Nε-di-(3,4-Dihydroxybenzoyl)-L-lysine], the midpoint of inhibition, the IC50, lay at 14000 nM.
On the same count and under the same terms, to `CC(C)(C)OC[C@H](NC(=O)/C=C/c1ccc(O)c(O)c1)C(=O)NCCc1ccc(O)c(O)c1` [Example 42, N-(Nα-Caffeoyl-O-tert-butyl-L-seryl)dopamine] belongs 442 nM.
Turning to `Nc1cc(C(=O)N[C@H](Cc2cn(C(c3ccccc3)(c3ccccc3)c3ccccc3)cn2)C(=O)NCCc2ccc(O)c(O)c2)ccc1O` [Example 2, N-[Nα-(3-Amino-4-hydroxybenzoyl)-Nτ-trityl-D-histidinyl]dopamine], the IC50 is > 5000 nM.
Consider `O=C(C=Cc1ccsc1)NC(Cc1cn(-c2ccc([N+](=O)[O-])cc2[N+](=O)[O-])cn1)C(=O)NNC(=O)c1ccccc1O` [Example 81, N1-[Nα-(3-(3′-thiophenyl)acryloyl)-Nτ-(2,4-dinitrophenyl)-L-histidinyl]-N2-(2-hydroxybenzoyl)-hydrazine], for which the IC50 is > 10000 nM.
`O=C(N[C@@H](Cc1c[nH]c2ccccc12)C(=O)NCCc1ccc(O)c(O)c1)c1cc2cccc(O)c2cc1O` [Example 59, N-[Nα-(3,5-Dihydroxynaphthyl-2-carbonyl)-L-tryptophanyl]dopamine]: the IC50 was 620 nM.
The same measure, in the same setting: to `O=C(O)CC[C@H](NC(=O)c1cc2ccccc2n1Cc1ccc(F)cc1)C(=O)NCc1ccccc1` [Example 94, N-[Nα-(N′-(4-Fluorobenzyl)indole-2-carbonyl)-L-glutamyl]benzylamine] belongs 9250 nM; to `COc1ccc(OC)c(NC(=O)[C@H](CCC(=O)NC(c2ccccc2)(c2ccccc2)c2ccccc2)NC(=O)c2cc(O)c3cccc(O)c3n2)c1` [Example 85, N-[Nα-(4,8-Dihydroxyquinoline-2-carbonyl)-Nδ-trityl-L-glutaminyl]-2,5-dimethoxyaniline], 2600 nM; to `O=C(N[C@@H](Cc1cn(C(c2ccccc2)(c2ccccc2)c2ccccc2)cn1)C(=O)NCCc1ccc(O)c(O)c1)c1ccc(O)c([N+](=O)[O-])c1` [Example 17, N-[Nα-(4-Hydroxy-3-nitrobenzoyl)-Nτ-trityl-L-histidinyl]dopamine], 1600 nM.
`COc1ccc(OC)c(NC(=O)[C@H](CCC(=O)NC(c2ccccc2)(c2ccccc2)c2ccccc2)NC(=O)c2cc3ccccc3[nH]2)c1` [Example 84, N-[Nα-(Indole-2-carbonyl)-Nδ-trityl-L-glutaminyl]-2,5-dimethoxyaniline] yielded a 50% inhibitory concentration (IC50) of 4100 nM.
With `O=C(N[C@@H](Cc1cn(C(c2ccccc2)(c2ccccc2)c2ccccc2)cn1)C(=O)NCc1ccc(O)c(O)c1)c1ccc(O)c(O)c1` [Example 25, N-[Nα-(3,4-Dihydroxybenzoyl)-Nτ-trityl-L-histidinyl]-3,4-dihydroxybenzylamine], the IC50 was > 1000 nM.
Consider `CC(C)(C)OC[C@H](NC(=O)c1cc(O)c2cccc(O)c2n1)C(=O)NCCc1ccc(O)c(O)c1` [Example 72, N-[Nα-(4,8-Dihydroxyquinoline-2-carbonyl)-O-tert-butyl-L-seryl]dopamine], for which the IC50 was > 10000 nM.
For `Cc1ccc(C(NC(=O)CC[C@H](NC(=O)/C=C/c2ccc(O)c(O)c2)C(=O)NCc2ccc(O)c(O)c2)(c2ccccc2)c2ccccc2)cc1` [Example 33, N-(Nα-Caffeoyl-Nδ-methyltrityl-L-glutaminyl)-3,4-dihydroxybenzylamine], the half-maximal inhibitory concentration (IC50) was 155 nM.

Staying with this experiment, now noted: Table 4, compounds of formula I′; read-out: IC50.
As for `O=C(C=Cc1ccc(OCc2ccc(F)cc2)c(OCc2ccc(F)cc2)c1)NCC(=O)NCCc1cccs1` [Example 98, N-[Nα-(3,4-di-(4-Fluorobenzyloxy)caffeoyl)-glycyl]-2-(2′-thiophenyl)ethylamine], the IC50 was > 10000 nM.
